Reference: US20120282377A1, “Methods and Formulations for Inhibiting Degradation of Photosensitive Sweeteners and Sweetener Enhancers” (priority 2011, published 2012)
Values joined by “and” are separate entries in the source; they are usually repeats but may differ in a detail not shown here. Equal values may be shown once.

Experiments:
Format in all cases: physicochemical
[1] = Stability of monatin in lemon lime matrix under ultraviolet light, Atlas sun-test chamber (Example 2); conditions: for monatin sample degraded: four days equivalent of ultraviolet light exposure (24 hours in UV chamber)
Description: High-potency sweetener monatin was evaluated for stability to sunlight exposure when formulated into a beverage packaged in PET packaging (bottle) with and without a UV barrier or in a dark-colored PET packaging. This study was designed to evaluate the stability of RR stereoisomer of monatin under normal visible light and under ultraviolet light in the Atlas sun-test chamber using normal PET bottles, PET packaging with a UV barrier and dark PET packaging. For this purpose monatin solution was made in a lemon lime carbonated beverage matrix without any flavor added.
The RR isomer of monatin was used for the present study after satisfactory HPLC and LC-MS data analyses confirmed that this sample greater than 95% pure. A lemon lime beverage matrix without flavor was used as the matrix base. The concentration of monatin in the matrix was 30 ppm.
Due to lack of any RR-monatin standard, its stereoisomer, SS-monatin was used for HPLC calibration curve preparation as it appears at the same retention time as RR-monatin.
Quantitative analysis of monatin via UV detection in LC-MS was done for all the samples. The methodology employed a 12% acetonitrile (solvent A) in 50 mM ammonium formate (pH 4.0, solvent B) for 5 min followed by a linear gradient to 34% acetonitrile over 5 min; Detection: UV @278 nm].
1) regular PET bottles, 300 mL or 8 Oz (bottle type A). 2) PET bottles with a UV barrier, 600 mL or 16 Oz, fresh un-used bottle* (bottle type B). * It was shown that the UV barrier capacity decreased after one use in the commercially bought 20 Oz PET bottles with a UV barrier (See the UV scan data in FIG. 1). 3) dark-colored PET bottles (bottle type C). UV light source: Atlas Sun-test chamber. Under program 1 of sun-test chamber, 6 hr of exposure is equal to one day of sun-light exposure in Arizona or 400 Langley at 40° C. Control Experiment: UV irradiation by using only a lemon lime matrix (no monatin added) in regular PET bottles and running the sun-test chamber for four days equivalent exposure was carried out. The purpose of this experiment was to make sure no artifact arises from lemon lime matrix in the monatin absorption region. No new signals were identified. 13 bottles were used in the monatin-lemon-lime matrix experiments: 1 regular PET at zero time and 3 regular PET bottles; 2 PET bottles with a UV barrier bottles and 7 dark-colored PET bottles. Zero time sample protocol: 330 mL PET bottle was filled up to ⅓^rd full, flushed with nitrogen, covered with foil and then kept at 4° C. Sample aliquot protocol: 5 mL was taken out in a 20 mL opaque glass scintillation vial. Both vial and experimental bottle were flushed with nitrogen. The vial was covered with foil and kept at 4° C.
LC-MS analysis was carried out on all the samples in the same day as their maturation. A new monatin calibration curve was made every day with the SS-monatin sample.
For these experiments samples were kept in the Atlas sun-test chamber where each 6 hr exposure was equivalent to one day of sun exposure in Arizona (400 Langley). […] In particular, it was noted that under UV light in regular PET, monatin degrades by 70% in just one day's exposure.

[2] = Odor analysis of UV and light exposed monatin samples by 6 panelists; parameters: key to Odor analysis: (+) = no odor or minor odor; (−) = distinct or unpleasant odor; conditions: for Odor analysis: 30 PPM in lemon lime matrix pH 3.35, panelists 1-6
Description: A survey of odor and visual analysis of the UV and light exposed samples of the monatin samples was conducted by 6 panelists. Samples for analysis were solution of monatin in a lemon lime matrix without flavor at pH 3.35 (30 PPM monatin) exposed to visible for three days or UV light for 24 hours (equivalent of four days sun exposure).

[3] = Monatin stability in lemon-lime beverage with or without EMIQ, UV irradiation (Example 4)
Description: The polyphenol enzymatically-modified isoquercitrin (EMIQ) was used to stabilize monatin (31 mg/L) in a lemon lime carbonated beverage formulation contained in either a regular (clear, colorless) PET bottle or a dark-colored PET bottle. The level of EMIQ in the samples was 7.5 PPM. A control formulation was used that contained no EMIQ. The samples were exposed to UV light or ambient indoor laboratory fluorescent lighting for up to 72 hours. UV light was administered in a UV chamber at 40° C. with approximately 400 Langley per 6 hours of exposure. The results listed below indicate that the monatin was very unstable in the control formulations with only 1.4% monatin remaining after 24 hours exposure to UV light. EMIQ provided protection from degradation of the monatin. When packaged in a dark-colored PET bottle approximately 89% monatin remained in the formulation after exposure to UV light for 24 hours. When exposed to ambient indoor laboratory lighting for 72 hours over 90% monatin remained in both clear and dark PET bottles containing the EMIQ polyphenol. All analyses were done by HPLC/MS.

[4] = 0 hours of exposure in UV chamber
[5] = 6 hours of exposure in UV chamber
[6] = 12 hours of exposure in UV chamber
[7] = 18 hours of exposure in UV chamber
[8] = 24 hours of exposure in UV chamber
[9] = dark-colored PET, with EMIQ 7.5 PPM, UV exp. 0 hours
[10] = dark-colored PET, with EMIQ 7.5 PPM, UV exp. 6 hours
[11] = dark-colored PET, with EMIQ 7.5 PPM, UV exp. 12 hours
[12] = dark-colored PET, with EMIQ 7.5 PPM, UV exp. 18 hours
[13] = dark-colored PET, with EMIQ 7.5 PPM, UV exp. 24 hours
[14] = regular PET, no EMIQ, UV exp. 0 hours
[15] = regular PET, no EMIQ, UV exp. 6 hours
[16] = regular PET, no EMIQ, UV exp. 12 hours
[17] = regular PET, no EMIQ, UV exp. 18 hours
[18] = regular PET, no EMIQ, UV exp. 24 hours
[19] = regular PET, with EMIQ 7.5 PPM, UV exp. 0 hours
[20] = regular PET, with EMIQ 7.5 PPM, UV exp. 6 hours
[21] = regular PET, with EMIQ 7.5 PPM, UV exp. 12 hours
[22] = regular PET, with EMIQ 7.5 PPM, UV exp. 18 hours
[23] = regular PET, with EMIQ 7.5 PPM, UV exp. 24 hours

Conc. in mg/L RR-Monatin in Lemon Lime matrix in Normal PET Bottle (330 mL) [1, 4]: 31.1 mg/L
Conc. in mg/L RR-Monatin in Lemon Lime matrix in UV barrier PET Bottle (600 mL) [1, 4]: 31.1 mg/L
Conc. in mg/L RR-Monatin in Lemon Lime matrix in dark-colored PET Bottle (75 mL) [1, 4]: 31.1 mg/L
Conc. in mg/L RR-Monatin in Lemon Lime matrix in Normal PET Bottle (330 mL) [1, 5]: 9.0 mg/L
Conc. in mg/L RR-Monatin in Lemon Lime matrix in UV barrier PET Bottle (600 mL) [1, 5]: 27.6 mg/L
Conc. in mg/L RR-Monatin in Lemon Lime matrix in dark-colored PET Bottle (75 mL) [1, 5]: 29.2 mg/L
Conc. in mg/L RR-Monatin in Lemon Lime matrix in Normal PET Bottle (330 mL) [1, 6]: 2.1 mg/L
Conc. in mg/L RR-Monatin in Lemon Lime matrix in UV barrier PET Bottle (600 mL) [1, 6]: 22.4 mg/L
Conc. in mg/L RR-Monatin in Lemon Lime matrix in dark-colored PET Bottle (75 mL) [1, 6]: 29.1 mg/L
Conc. in mg/L RR-Monatin in Lemon Lime matrix in Normal PET Bottle (330 mL) [1, 7]: 0.3 mg/L
Conc. in mg/L RR-Monatin in Lemon Lime matrix in UV barrier PET Bottle (600 mL) [1, 7]: 9.8 mg/L
Conc. in mg/L RR-Monatin in Lemon Lime matrix in dark-colored PET Bottle (75 mL) [1, 7]: 29.0 mg/L
Conc. in mg/L RR-Monatin in Lemon Lime matrix in Normal PET Bottle (330 mL) [1, 8]: 0.0 mg/L
Conc. in mg/L RR-Monatin in Lemon Lime matrix in UV barrier PET Bottle (600 mL) [1, 8]: 3.6 mg/L
Conc. in mg/L RR-Monatin in Lemon Lime matrix in dark-colored PET Bottle (75 mL) [1, 8]: 28.6 mg/L
degradation upon exposure to UV light ([1]; Regular PET bottles and PET with UV barrier bottles): did not prevent degradation of monatin
monatin sample degraded ([1]; UV barrier PET bottle): ~90%
monatin degrades ([1]; UV light, regular PET, one day's exposure): 70%
monatin sample degraded ([1]; dark-colored PET bottle): less than 10%
Odor analysis ([2]; Dark-colored PET bottle, UV light 24 hours): − and +
Odor analysis ([2]; Dark-colored PET bottle, visible light three days): − and +
Odor analysis ([2]; PET with UV barrier, UV light 24 hours): − and +
Odor analysis ([2]; PET with UV barrier, visible light three days): +
Odor analysis ([2]; Regular PET, UV light 24 hours): − and +
Odor analysis ([2]; Regular PET, visible light three days): +
odor change after UV exposure ([2]; samples in the dark-colored PET bottles): no or minimal odor change
% Monatin remaining [3, 9]: 100%
Conc. of Monatin [3, 9]: 30930 ng/mL
% Monatin remaining [3, 10]: 92.4% and 92.3%
Conc. of Monatin [3, 10]: 28590 ng/mL and 28530 ng/mL
% Monatin remaining [3, 11]: 90.7% and 90.9%
Conc. of Monatin [3, 11]: 28050 ng/mL and 28100 ng/mL
% Monatin remaining [3, 12]: 90.7% and 90.5%
Conc. of Monatin [3, 12]: 28040 ng/mL and 28000 ng/mL
% Monatin remaining [3, 13]: 89.0% and 89.3%
Conc. of Monatin [3, 13]: 27510 ng/mL and 27620 ng/mL
% Monatin remaining ([3]; dark-colored PET, with EMIQ 7.5 PPM, UV exp. 24 hours, listed as monatin): approximately 89%
% Monatin remaining [3, 14]: 100%
Conc. of Monatin [3, 14]: 30760 ng/mL and 30790 ng/mL
% Monatin remaining [3, 15]: 68.6%
Conc. of Monatin [3, 15]: 21130 ng/mL and 21110 ng/mL
% Monatin remaining [3, 16]: 9.4% and 9.3%
Conc. of Monatin [3, 16]: 2890 ng/mL and 2870 ng/mL
% Monatin remaining [3, 17]: 1.7% and 1.6%
Conc. of Monatin [3, 17]: 540 ng/mL and 510 ng/mL
% Monatin remaining [3, 18]: 1.4%
Conc. of Monatin [3, 18]: 430 ng/mL and 440 ng/mL
% Monatin remaining [3, 19]: 100%
Conc. of Monatin [3, 19]: 30930 ng/mL
% Monatin remaining [3, 20]: 83.1% and 82.9%
Conc. of Monatin [3, 20]: 25710 ng/mL and 25620 ng/mL
% Monatin remaining [3, 21]: 69.3%
Conc. of Monatin [3, 21]: 21420 ng/mL and 21440 ng/mL
% Monatin remaining [3, 22]: 52.0% and 51.7%
Conc. of Monatin [3, 22]: 16070 ng/mL and 15990 ng/mL
% Monatin remaining [3, 23]: 34.9% and 34.8%
Conc. of Monatin [3, 23]: 10800 ng/mL and 10760 ng/mL
SMILES: NC(CC(O)(Cc1c[nH]c2ccccc12)C(=O)O)C(=O)O (stereo not drawn) [Monatin, 2-amino-4-carboxy-4-hydroxy-5-(3-indolyl)-pentanoic acid]
degradation, UV light versus visible light ([1]; lemon-lime matrix): degrade faster upon UV light exposure than upon visible light exposure
degradation upon exposure to UV light ([1]; monatin solution in dark-colored PET bottles): prevented most of the monatin from degrading
monatin sample degraded ([1]; normal PET bottle): all of the monatin sample in the normal PET bottle had degraded
